Experimental data: patent publication US20260317337A1, “HETEROCYCLIC COMPOUNDS FOR IMAGING AGGREGATED ALPHA SYNUCLEIN IN THE SYNUCLEINOPATHIES” (THE TRUSTEES OF THE UNIVERSITY OF PENNSYLVANIA, priority 2023, published 2026)
Like-named read-outs stand apart in the source and are kept apart here. Values belong to the molecule of their own block, whether it stands above or below them.

How the values were obtained:
α-synuclein fibrils = α-synuclein fibrils (Homo sapiens, UniProt P37840); assay: Competitive radioligand binding with [^3H]BF2846 on α-synuclein fibrils; conditions: [^3H]BF2846, α-synuclein fibrils; mean + Sd, n = 3; read-out: α-syn Ki
Method: Competition binding assays were performed with [^3H]BF2846 and [^3H]PIB to measure affinity to Asyn and Aβ. […]

aggregated tau = aggregated tau (Homo sapiens, UniProt P10636); assay: Blocking of the ^3H-labelled compound with tau ligands, homogenate binding and autoradiography; conditions: AD, CBD and PSP
Sequence of aggregated tau (P10636 whole entry): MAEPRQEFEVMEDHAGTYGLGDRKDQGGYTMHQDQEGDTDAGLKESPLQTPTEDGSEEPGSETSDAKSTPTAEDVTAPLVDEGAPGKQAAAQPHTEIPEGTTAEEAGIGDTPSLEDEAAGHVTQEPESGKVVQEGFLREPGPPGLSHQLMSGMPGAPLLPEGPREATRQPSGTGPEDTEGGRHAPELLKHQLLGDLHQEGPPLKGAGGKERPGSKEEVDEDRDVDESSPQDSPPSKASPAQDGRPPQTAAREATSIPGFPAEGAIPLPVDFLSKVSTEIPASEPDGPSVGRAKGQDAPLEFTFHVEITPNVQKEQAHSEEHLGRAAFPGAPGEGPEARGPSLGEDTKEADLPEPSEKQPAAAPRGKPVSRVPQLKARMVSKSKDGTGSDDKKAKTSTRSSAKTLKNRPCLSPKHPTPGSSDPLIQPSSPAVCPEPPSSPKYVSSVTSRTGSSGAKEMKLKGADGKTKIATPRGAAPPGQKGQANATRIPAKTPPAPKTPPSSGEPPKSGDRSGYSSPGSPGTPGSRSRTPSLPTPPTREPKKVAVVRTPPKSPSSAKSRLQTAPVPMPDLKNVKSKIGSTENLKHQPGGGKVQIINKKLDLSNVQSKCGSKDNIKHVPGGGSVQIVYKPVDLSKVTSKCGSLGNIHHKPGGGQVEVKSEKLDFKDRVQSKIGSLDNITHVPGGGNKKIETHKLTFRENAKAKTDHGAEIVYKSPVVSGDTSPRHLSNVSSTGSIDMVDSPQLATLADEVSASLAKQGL

alpha synuclein = molecular target: T1, alpha synuclein (Homo sapiens, UniProt P37840); assay: Autoradiography in postmortem brain tissue sections; format: binding; conditions: PD, MSA and control brain sections
T1 construct: autoradiography
Method: FIGS. 1A and 1C are nuclear emulsion autoradiography images of a postmortem brain samples (A—[…] PD brain; C—MSA brain) after administration of ^3H-Compound 103. FIGS. 1B and 1D are the same samples from FIGS. 1A and 1C after incubating sequentially with anti-phospho-α-syn (S129) antibody (p-syn/81A, BioLegend) and Alexa Fluor 488 goat anti-mouse secondary antibody to immunostain LBs and LNs. FIGS. 1E and 1G are nuclear emulsion autoradiography images of postmortem brain samples of (E—PD brain; G—[…] MSA brain) with ^3H-Compound 43. FIGS. 1F and 1H are the same samples from FIGS. 1E and 1G after incubating sequentially with anti-phospho-α-syn (S129) antibody (p-syn/81A, BioLegend) and Alexa Fluor 488 goat anti-mouse secondary antibody to immunostain LBs and LNs.
FIG. 3 are autoradiography images in tissue sections of ^3H-Compound 103 and ^3H-Compound 43 in PD, MSA and control brain. Neuropathological scores for Abeta, tau and Asyn are shown for each tissue section.
Kd and Bmax values of [^3H]-Compound 113 were obtained from a panel of postmortem brain samples (e.g., PD, MSA, corticobasal degeneration (CBD), progressive supranuclear palsy (PSP), Alzheimer's disease (AD)). Nuclear emulsion autoradiography identified the distribution of [^3H]-Compound 113 on PD and MSA tissues for aggregated Asyn, which was confirmed by antibody staining. […]

[1] = Dynamic PET imaging in non-human primate; format: in vivo
Method: FIG. 2 are dynamic whole body PET images of ^11C-compound 103 in a non-human primate 1-90 minutes after administration ^11C-compound 103.
FIG. 6 are dynamic PET images (top) and time-activity curves for whole brain and different brain regions (bottom) of ^11C-compound 103 in a non-human primate and show the high uptake and rapid washout of [^11C]-compound 103.
FIG. 7 are dynamic PET images (top) and time-activity curves (bottom) of ^11C-compound 43 in a non-human primate and show the high uptake and rapid washout of [^11C]-compound 43.
Kd and Bmax values of [^3H]-Compound 113 were obtained from a panel of postmortem brain samples (e.g., PD, MSA, corticobasal degeneration (CBD), progressive supranuclear palsy (PSP), Alzheimer's disease (AD)). Nuclear emulsion autoradiography identified the distribution of [^3H]-Compound 113 on PD and MSA tissues for aggregated Asyn, which was confirmed by antibody staining. Dynamic whole body PET images of [^11C]-Compound 113 in non-human primate were obtained over 90 min. […] The non-human primate PET study confirmed that [^11C]-Compound 113 had good brain uptake (SUV ~1.6) and rapid washout (2:60 min ratio ~3.0).

Structure (SMILES): Nc1nc(N2CCN(c3ccccn3)CC2)ncc1C(=O)Nc1ccc(OC[C@H](O)CF)cc1 [Compound 135, (S)-4-amino-N-(4-(3-fluoro-2-hydroxypropoxy)phenyl)-2-(4-(pyridin-2-yl)piperazin-1-yl)pyrimidine-5-carboxamide]
- Ki (α-synuclein fibrils): 16.9 nM

Structure (SMILES): Nc1nc(N2CCN(c3ccccn3)CC2)ncc1C(=O)Nc1ccc(OC[C@@H](O)CF)cc1 [Compound 136, (R)-4-amino-N-(4-(3-fluoro-2-hydroxypropoxy)phenyl)-2-(4-(pyridin-2-yl)piperazin-1-yl)pyrimidine-5-carboxamide]
- Ki (α-synuclein fibrils): 24.8 nM

Structure (SMILES): COc1ccc(C(=O)Nc2ccc(N3C4CCC3CN(c3ccccn3)C4)cc2)cc1 [[^3H]-Compound 103, 4-methoxy-N-(4-(3-(pyridin-2-yl)-3,8-diazabicyclo[3.2.1]octan-8-yl)phenyl)benzamide]
- ability to image alpha synuclein in human postmortem samples (alpha synuclein): MSA and not PD and age-matched control

Structure (SMILES): COc1ccc(C(=O)Nc2ccc(N3C4CCC3CN(c3ccccn3)C4)cc2)cc1 [[^11C]-Compound 103, 4-methoxy-N-(4-(3-(pyridin-2-yl)-3,8-diazabicyclo[3.2.1]octan-8-yl)phenyl)benzamide]
- uptake (words) [1]: high brain uptake
- washout [1]: rapid washout
- uptake (words) ([1]; listed as [^11C]-compound 103): high uptake

Other lines, results leading:

- blocking of [^3H]-Compound 113 binding by tau ligands (aggregated tau): could not be blocked
Structure (SMILES): Fc1cc(-c2ccc3c(n2)[nH]c2ccncc23)ccn1 [PI-2620]

- blocking of [^3H]-Compound 113 binding by tau ligands (aggregated tau): could not be blocked
Structure (SMILES): CNc1ccc(/C=C/C=C/c2nc3ccc(OCC(O)CF)cc3s2)cn1 (centres unmarked) [PM-PBB3]

- ability to image alpha synuclein in human postmortem samples (alpha synuclein): PD and not MSA and age-matched control
Structure (SMILES): COc1ccc(NC(=O)c2cnc(Cl)nc2)cc1 [[^3H]-Compound 43]

- uptake (words) [1]: high uptake
- washout [1]: rapid washout
Structure (SMILES): COc1ccc(NC(=O)c2cnc(Cl)nc2)cc1 [[^11C]-compound 43]
